Results published in patent US20260193180A1, “AUTOPHAGY INDUCING COMPOUNDS AND USES THEREOF” (SAMSARA THERAPEUTICS INC., priority 2022, published 2026).
Structures can show the parent of a compound that is named as a salt.

System: Human osteosarcoma U2OS cells
Experiment: Acidic vesicle formation (lysosome/autolysosome staining, LysoView 633 / LysoTracker Deep Red), stimulation of autophagy
Assay type: cell-based
Conditions: 24 hours; for activation at 0.8 µM: read-out: Activity (percentage increase in acidic vesicle formation over the DMSO-treated control); for activation at 10 µM: read-out: increase in acidic vesicle formation over the DMSO-treated control
Description: Lysosomes play a fundamental role in the autophagic pathway by fusing with autophagosomes and creating ‘autolysosomes’ in order to digest their contents. Stimulation of lysosome and autolysosome formation by a compound is indicative of a stimulation of autophagy. The ability of compounds to stimulate lysosome and autolysosome formation, and thus autophagy, in live cells was assessed via fluorescent microscopy using various fluorescent stains for labelling and tracking acidic organelles (including lysosomes and autolysosomes) such as: LysoView™ 650 (70059 and 70059-T, Biotium), LysoView™633 (70058 and 70058-T, Biotium) and LysoTracker™ Deep Red (L12492, ThermoFisher Scientific). The cellular phenotype was quantitatively assessed for the induction of acidic vesicle formation and compared to a non-treated control, thus providing a measure of the ability of the compound under investigation to stimulate autophagy.
Representative procedure using LysoView™633 dye or LysoTracker™ Deep Red dye: Human osteosarcoma U2OS cells (40,000 cells/well) were seeded in a 24 well glass bottom plate (Sensoplate, Greiner Bio-One) and were incubated overnight in a humidified atmosphere at 37° C. and 5% CO2. Cells were grown in DMEM (Gibco) supplemented with 10% Fetal Bovine Serum (FBS) and 100 units/ml penicillin and 100 μg/ml streptomycin (Invitrogen). After the attachment period, cells were treated with different compounds of interest (at various concentrations in DMSO) or DMSO (non-treated control) in cell culture medium and were incubated for 24 hours. Compound-containing medium was removed and cells were incubated with pre-warmed cell culture medium containing 1× LysoView™ 633 (70058 and 70058-T, Biotium) or 50 nM LysoTracker™ Deep Red (L12492, ThermoFisher Scientific) for 45 minutes at 37° C. Finally, cell nuclei were stained for 10 minutes using Hoechst 33342 (1 μg/mL) and then the medium was replaced with fresh medium. The 24 well plate was then fitted into a heated stage on the microscope and cells maintained at 37° C. Images were captured using appropriate filter set for Cy5 and DAPI detection with the EVOS M7000 Microscope (ThermoFisher Scientific). The cellular phenotype was visually assessed for the induction of acidic vesicle formation relative to the non-treated control; multiple images were acquired and analysed using ImageJ or Cell Profiler.

| Compound | activation at 0.8 µM [%] | activation at 10 µM [%] |
| --- | --- | --- |
| NC[C@@H]1CCN(Cc2cc(Cl)cc3c2OCO3)C1 [Compound 55, (S)-(1-((6-chlorobenzo[d][1,3]dioxol-4-yl)methyl)pyrrolidin-3-yl)methanamine hydrochloride] | > 100 | ≥ 25 |
| CCOc1ccc(CN2CCC(CN)C2)cc1Cl (stereo not drawn) [Compound 39, (1-(3-chloro-4-ethoxybenzyl)pyrrolidin-3-yl)methanamine hydrochloride] | 30 to 50 | ≥ 25 |
| CCOc1ccc(Cl)cc1CN1CCOC(CN)C1 (stereo not drawn) [Compound 41, (4-(5-chloro-2-ethoxybenzyl)morpholin-2-yl)methanamine hydrochloride] | 10 to 30 | ≥ 25 |
| CCOc1ccc(Cl)cc1CN1CCO[C@@H](CN)C1 [Compound 28, (S)-(4-(5-chloro-2-ethoxybenzyl)morpholin-2-yl)methanamine hydrochloride] | 10 to 30 | ≥ 25 |
| C[C@H]1CN(Cc2cc(Cl)ccc2OCC2CC2)CCN1 [Compound 46, (S)-1-(5-chloro-2-(cyclopropylmethoxy)benzyl)-3-methylpiperazine hydrochloride] | 10 to 30 | ≥ 25 |
| CCOc1ccc(Cl)cc1CCN1CCC[C@@H](CN)C1 [Compound 45, (S)-(1-(5-chloro-2-ethoxyphenethyl)piperidin-3-yl)methanamine hydrochloride] | 50 to 100 | ≥ 25 |
| CCOc1ccc(C(F)(F)F)cc1CN1CCN[C@@H](C)C1 [Compound 1, (S)-1-(2-ethoxy-5-(trifluoromethyl)benzyl)-3-methylpiperazine hydrochloride] |  | ≥ 25 |
| COCCOc1ccc(Cl)cc1CN1CC[C@@H](CN)C1 [Compound 54, (S)-(1-(5-chloro-2-(2-methoxyethoxy)benzyl)pyrrolidin-3-yl)methanamine hydrochloride] |  | ≥ 25 |
| CCOc1ccc(Cl)cc1CN1CCN(CC)CC1 [Compound 10, 1-(5-chloro-2-ethoxybenzyl)-4-ethylpiperazine] | 10 to 30 | ≥ 25 |
| CCOc1cc(F)c(CN2CC[C@@H](CN)C2)cc1Cl [Compound 58, (S)-(1-(5-chloro-4-ethoxy-2-fluorobenzyl)pyrrolidin-3-yl)methanamine hydrochloride] |  | ≥ 25 |
| CCOc1cc(C#N)c(Cl)cc1CN1CC[C@@H](CN)C1 [Compound 61, (S)-4-((3-(aminomethyl)pyrrolidin-1-yl)methyl)-2-chloro-5-ethoxybenzonitrile hydrochloride] |  | ≥ 25 |
| NC[C@@H]1CCN(Cc2cc(Cl)ccc2OCC2CC2)C1 [Compound 4, (S)-(1-(5-chloro-2-(cyclopropylmethoxy)benzyl)pyrrolidin-3-yl)methanamine hydrochloride] | 30 to 50 | ≥ 25 |
| CCOc1ccc(Cl)cc1CN1CC(CN)C1 [Compound 17, (1-(5-chloro-2-ethoxybenzyl)azetidin-3-yl)methanamine hydrochloride] | 50 to 100 | ≥ 25 |
| CCOc1ccc(Cl)cc1CN1CCN(C(C)C)CC1 [Compound 18, 1-(5-chloro-2-ethoxybenzyl)-4-isopropylpiperazine] | 10 to 30 | ≥ 25 |
| CCOc1ccc(Cl)cc1CCN1CCC[C@H](N)C1 [Compound 19, (S)-1-(5-chloro-2-ethoxyphenethyl)piperidin-3-amine hydrochloride] |  | ≥ 25 |
| CCOc1ccc(C(F)(F)F)cc1CN1CC[C@@H](CN)C1 [Compound 2, (S)-(1-(2-ethoxy-5-(trifluoromethyl)benzyl)pyrrolidin-3-yl)methanamine hydrochloride] | 10 to 30 | ≥ 25 |
| CCOc1cc(Cl)c(Cl)cc1CN1CCN[C@@H](C)C1 [Compound 37, (S)-1-(4,5-dichloro-2-ethoxybenzyl)-3-methylpiperazine hydrochloride] | 10 to 30 | ≥ 25 |
| NC[C@@H]1CCN(CCc2ccc(OCC3CC3)c(Cl)c2)C1 [Compound 20, (S)-(1-(3-chloro-4-(cyclopropylmethoxy)phenethyl)pyrrolidin-3-yl)methanamine hydrochloride] |  | ≥ 25 |

| Compound | activation at 0.8 µM [%] | activation at 10 µM [%] |
| --- | --- | --- |
| CCOc1ccc(Cl)cc1CN1CCC[C@H](N)C1 [Compound 16, (S)-1-(5-chloro-2-ethoxybenzyl)piperidin-3-amine hydrochloride] |  | ≥ 25 |
| NC[C@@H]1CCN(CCc2cc(Cl)ccc2OCC2CC2)C1 [Compound 44, (S)-(1-(5-chloro-2-(cyclopropylmethoxy)phenethyl)pyrrolidin-3-yl)methanamine hydrochloride] | 50 to 100 | ≥ 25 |
| CCOc1ccc(Cl)cc1CN1CCO[C@H](CN)C1 [Compound 29, (R)-(4-(5-chloro-2-ethoxybenzyl)morpholin-2-yl)methanamine hydrochloride] | 50 to 100 | ≥ 25 |
| CCOc1ccc(Cl)cc1CCN1CC[C@@H](CN)C1 [Compound 49, (S)-(1-(5-chloro-2-ethoxyphenethyl)pyrrolidin-3-yl)methanamine hydrochloride] |  | ≥ 25 |
| CC(C)COc1ccc(Cl)cc1CN1CC[C@@H](CN)C1 [Compound 52, (S)-(1-(5-chloro-2-isobutoxybenzyl)pyrrolidin-3-yl)methanamine hydrochloride] | 10 to 30 | ≥ 25 |
| CCOc1cc(Cl)cc(CN2CC[C@@H](CN)C2)c1 [Compound 31, (S)-(1-(3-chloro-5-ethoxybenzyl)pyrrolidin-3-yl)methanamine hydrochloride] | > 100 | ≥ 25 |
| CCOc1ccc(OC(F)(F)F)cc1CN1CCN[C@@H](C)C1 [Compound 38, (S)-1-(2-ethoxy-5-(trifluoromethoxy)benzyl)-3-methylpiperazine hydrochloride] | 10 to 30 | ≥ 25 |
| CCOc1cc(F)c(F)cc1CN1CC[C@@H](CN)C1 [Compound 22, (S)-(1-(2-ethoxy-4,5-difluorobenzyl)pyrrolidin-3-yl)methanamine hydrochloride] |  | ≥ 25 |
| CCCOc1ccc(Cl)cc1CCN1CCC[C@@H](CN)C1 [Compound 43, (S)-(1-(5-chloro-2-propoxyphenethyl)piperidin-3-yl)methanamine hydrochloride] | 50 to 100 | ≥ 25 |
| CCOc1ccc(CCN2CCC[C@@H](CN)C2)cc1Cl [Compound 67, (S)-(1-(3-chloro-4-ethoxyphenethyl)piperidin-3-yl)methanamine hydrochloride] |  | ≥ 25 |
| NC[C@@H]1CCN(Cc2cc(Cl)c(Cl)cc2OCC2CC2)C1 [Compound 6, (S)-(1-(4,5-dichloro-2-(cyclopropylmethoxy)benzyl)pyrrolidin-3-yl)methanamine hydrochloride] | 50 to 100 | ≥ 25 |
| CCOc1ccc(Cl)cc1CN1CCC[C@@H](N)C1 [Compound 15, (R)-1-(5-chloro-2-ethoxybenzyl)piperidin-3-amine hydrochloride] | 10 to 30 | ≥ 25 |
| CCOc1cc(C#N)c(Cl)cc1CN1CC[C@H](CN)C1 [Compound 60, (R)-4-((3-(aminomethyl)pyrrolidin-1-yl)methyl)-2-chloro-5-ethoxybenzonitrile hydrochloride] |  | ≥ 25 |
| CCCOc1ccc(Cl)cc1CN1CCN[C@@H](C)C1 [Compound 47, (S)-1-(5-chloro-2-propoxybenzyl)-3-methylpiperazine hydrochloride] | 30 to 50 | ≥ 25 |
| CCOc1ccc(C#N)cc1CCN1CCC[C@@H](CN)C1 [Compound 64, (S)-3-(2-(3-(aminomethyl)piperidin-1-yl)ethyl)-4-ethoxybenzonitrile hydrochloride] |  | ≥ 25 |
| NC[C@@H]1CCN(Cc2cc(Cl)ccc2OCCO)C1 [Compound 25, (S)-2-(2-((3-(aminomethyl)pyrrolidin-1-yl)methyl)-4-chlorophenoxy)ethan-1-ol hydrochloride] | 30 to 50 | ≥ 25 |
| CCOc1ccc(Cl)cc1CN1CCC(N(C)C)CC1 [Compound 11, 1-(5-chloro-2-ethoxybenzyl)-N,N-dimethylpiperidin-4-amine] | 10 to 30 | ≥ 25 |
| CCCOc1ccc(OC(F)(F)F)cc1CN1CCN[C@@H](C)C1 [Compound 32, (S)-3-methyl-1-(2-propoxy-5-(trifluoromethoxy)benzyl) piperazine hydrochloride] | 50 to 100 | ≥ 25 |
